Measurements published in PubChem BioAssay AID2060602 (Molecular Pharmacology Branch, DTP, NCI, 2025).

Test system: 648629-189-R-J1-PDC complex spheroids viability
Experiment: Anticancer human tumor 648629-189-R-J1-PDC patient-derived bladder carcinoma cell line growth inhibition [CLK]
Details: for IC50: curve of first compound; for viability, T/C: stronger effect = lower value
Summary of the method: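 Patient-derived tumor cells grown as complex spheroids with HUVEC endothelial cells and mesenchymal stem cells, treated with drug combinations. Concentrations descend in half-log steps from near clinical Cmax, or from 10 microM if Cmax unknown.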

[1] = second compound 0.0316 µM, first compound 0.00949 µM
[2] = second compound 0.0316 µM, first compound 0.03 µM
[3] = second compound 0.0316 µM, first compound 0.0949 µM
[4] = second compound 0.0316 µM, first compound 0.3 µM
[5] = second compound 0.1 µM, first compound 0.00949 µM
[6] = second compound 0.1 µM, first compound 0.03 µM
[7] = second compound 0.1 µM, first compound 0.0949 µM
[8] = second compound 0.1 µM, first compound 0.3 µM
[9] = second compound 0.316 µM, first compound 0.00949 µM
[10] = second compound 0.316 µM, first compound 0.03 µM
[11] = second compound 0.316 µM, first compound 0.0949 µM
[12] = second compound 0.316 µM, first compound 0.3 µM
[13] = second compound 1 µM, first compound 0.00949 µM
[14] = second compound 1 µM, first compound 0.03 µM
[15] = second compound 1 µM, first compound 0.0949 µM
[16] = second compound 1 µM, first compound 0.3 µM
[17] = second compound 3.16 µM, first compound 0.00949 µM
[18] = second compound 3.16 µM, first compound 0.03 µM
[19] = second compound 3.16 µM, first compound 0.0949 µM
[20] = second compound 3.16 µM, first compound 0.3 µM
[21] = second compound 10 µM, first compound 0.00949 µM
[22] = second compound 10 µM, first compound 0.03 µM
[23] = second compound 10 µM, first compound 0.0949 µM
[24] = second compound 10 µM, first compound 0.3 µM
[25] = second compound 0.0316 µM, first compound 0.0316 µM
[26] = second compound 0.0316 µM, first compound 0.1 µM
[27] = second compound 0.0316 µM, first compound 0.316 µM
[28] = second compound 0.0316 µM, first compound 1 µM
[29] = second compound 0.0316 µM, first compound 3.16 µM
[30] = second compound 0.0316 µM, first compound 10 µM
[31] = second compound 0.1 µM, first compound 0.0316 µM
[32] = second compound 0.1 µM, first compound 0.1 µM
[33] = second compound 0.1 µM, first compound 0.316 µM
[34] = second compound 0.1 µM, first compound 1 µM
[35] = second compound 0.1 µM, first compound 3.16 µM
[36] = second compound 0.1 µM, first compound 10 µM
[37] = second compound 0.316 µM, first compound 0.0316 µM
[38] = second compound 0.316 µM, first compound 0.1 µM
[39] = second compound 0.316 µM, first compound 0.316 µM
[40] = second compound 0.316 µM, first compound 1 µM
[41] = second compound 0.316 µM, first compound 3.16 µM
[42] = second compound 0.316 µM, first compound 10 µM
[43] = second compound 1 µM, first compound 0.0316 µM
[44] = second compound 1 µM, first compound 0.1 µM
[45] = second compound 1 µM, first compound 0.316 µM
[46] = second compound 1 µM, first compound 1 µM
[47] = second compound 1 µM, first compound 3.16 µM
[48] = second compound 1 µM, first compound 10 µM
[49] = second compound 3.16 µM, first compound 0.0316 µM
[50] = second compound 3.16 µM, first compound 0.1 µM
[51] = second compound 3.16 µM, first compound 0.316 µM
[52] = second compound 3.16 µM, first compound 1 µM
[53] = second compound 3.16 µM, first compound 3.16 µM
[54] = second compound 3.16 µM, first compound 10 µM
[55] = second compound 10 µM, first compound 0.0316 µM
[56] = second compound 10 µM, first compound 0.1 µM
[57] = second compound 10 µM, first compound 0.316 µM
[58] = second compound 10 µM, first compound 1 µM
[59] = second compound 10 µM, first compound 3.16 µM
[60] = second compound 10 µM, first compound 10 µM
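For viability, T/C in this document: drug exposure lasted seven days before viability readout; 100% = DMSO vehicle control wells.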

C=CC(=O)Nc1cc(Nc2nccc(-c3cn(C)c4ccccc34)n2)c(OC)cc1N(C)CCN(C)C + CN1CCN(c2cc(C(=O)Nc3cc4cc(-c5cnn(C)c5)ccc4cn3)ccn2)CC1
IC50 (second compound 0.0316 µM): > 300 nM | IC50 (second compound 0.1 µM): > 300 nM | IC50 (second compound 0.316 µM): < 0.949 nM | IC50 (second compound 1 µM): < 0.949 nM | IC50 (second compound 3.16 µM): < 0.949 nM | IC50 (second compound 10 µM): < 0.949 nM | viability, T/C (second compound 0.0316 µM, first compound 0.000949 µM): 104% | viability, T/C (second compound 0.0316 µM, first compound 0.003 µM): 109% | viability, T/C [1]: 112% | viability, T/C [2]: 115% | viability, T/C [3]: 110% | viability, T/C [4]: 91.6% | viability, T/C (second compound 0.1 µM, first compound 0.000949 µM): 104% | viability, T/C (second compound 0.1 µM, first compound 0.003 µM): 117% | viability, T/C [5]: 103% | viability, T/C [6]: 103% | viability, T/C [7]: 99.1% | viability, T/C [8]: 93% | viability, T/C (second compound 0.316 µM, first compound 0.000949 µM): 31.4% | viability, T/C (second compound 0.316 µM, first compound 0.003 µM): 42.5% | viability, T/C [9]: 40.7% | viability, T/C [10]: 35.6% | viability, T/C [11]: 33.8% | viability, T/C [12]: 23.6% | viability, T/C (second compound 1 µM, first compound 0.000949 µM): 0.28% | viability, T/C (second compound 1 µM, first compound 0.003 µM): 0.35% | viability, T/C [13]: 1.06% | viability, T/C [14]: 0.49% | viability, T/C [15]: 0.24% | viability, T/C [16]: 0.19% | viability, T/C (second compound 3.16 µM, first compound 0.000949 µM): 0.13% | viability, T/C (second compound 3.16 µM, first compound 0.003 µM): 0.19% | viability, T/C [17]: 0.15% | viability, T/C [18]: 0.14% | viability, T/C [19]: 0.82% | viability, T/C [20]: 0.77% | viability, T/C (second compound 10 µM, first compound 0.000949 µM): 0.24% | viability, T/C (second compound 10 µM, first compound 0.003 µM): 2.1% | viability, T/C [21]: 0.19% | viability, T/C [22]: 0.23% | viability, T/C [23]: 0.24% | viability, T/C [24]: 0.21%

CC1(C)CCC(CN2CCN(c3ccc(C(=O)NS(=O)(=O)c4ccc(NCC5CCOCC5)c([N+](=O)[O-])c4)c(Oc4cnc5[nH]ccc5c4)c3)CC2)=C(c2ccc(Cl)cc2)C1 + CN1CCN(c2cc(C(=O)Nc3cc4cc(-c5cnn(C)c5)ccc4cn3)ccn2)CC1
IC50 (second compound 0.0316 µM): > 10000 nM | IC50 (second compound 0.1 µM): > 10000 nM | IC50 (second compound 0.316 µM): < 31.6 nM | IC50 (second compound 1 µM): < 31.6 nM | IC50 (second compound 3.16 µM): < 31.6 nM | IC50 (second compound 10 µM): < 31.6 nM | viability, T/C [25]: 114% | viability, T/C [26]: 112% | viability, T/C [27]: 110% | viability, T/C [28]: 97.4% | viability, T/C [29]: 86.2% | viability, T/C [30]: 66.6% | viability, T/C [31]: 112% | viability, T/C [32]: 116% | viability, T/C [33]: 97.4% | viability, T/C [34]: 107% | viability, T/C [35]: 91.8% | viability, T/C [36]: 56.1% | viability, T/C [37]: 37% | viability, T/C [38]: 52% | viability, T/C [39]: 41.4% | viability, T/C [40]: 47.8% | viability, T/C [41]: 35.7% | viability, T/C [42]: 24.2% | viability, T/C [43]: 0.21% | viability, T/C [44]: 0.41% | viability, T/C [45]: 0.38% | viability, T/C [46]: 0.27% | viability, T/C [47]: 0.36% | viability, T/C [48]: 1.01% | viability, T/C [49]: 0.1% | viability, T/C [50]: 0.35% | viability, T/C [51]: 0.14% | viability, T/C [52]: 0.13% | viability, T/C [53]: 0.12% | viability, T/C [54]: 0.7% | viability, T/C [55]: 0.13% | viability, T/C [56]: 0.17% | viability, T/C [57]: 0.16% | viability, T/C [58]: 0.54% | viability, T/C [59]: 0.17% | viability, T/C [60]: 0.16%

NC(=O)C(=Cn1cnc(-c2cc(C(F)(F)F)cc(C(F)(F)F)c2)n1)c1cncnc1 + CN1CCN(c2cc(C(=O)Nc3cc4cc(-c5cnn(C)c5)ccc4cn3)ccn2)CC1
IC50 (second compound 0.0316 µM): 54.4 nM | IC50 (second compound 0.1 µM): 53.3 nM | IC50 (second compound 0.316 µM): < 9.49 nM | IC50 (second compound 1 µM): < 9.49 nM | IC50 (second compound 3.16 µM): < 9.49 nM | IC50 (second compound 10 µM): < 9.49 nM | viability, T/C [1]: 113% | viability, T/C [2]: 88.2% | viability, T/C [3]: 14.3% | viability, T/C [4]: 2.66% | viability, T/C (second compound 0.0316 µM, first compound 0.949 µM): 1.8% | viability, T/C (second compound 0.0316 µM, first compound 3 µM): 1.61% | viability, T/C [5]: 93.7% | viability, T/C [6]: 87.7% | viability, T/C [7]: 12.2% | viability, T/C [8]: 2.12% | viability, T/C (second compound 0.1 µM, first compound 0.949 µM): 0.68% | viability, T/C (second compound 0.1 µM, first compound 3 µM): 0.92% | viability, T/C [9]: 14.6% | viability, T/C [10]: 11.7% | viability, T/C [11]: 3% | viability, T/C [12]: 0.3% | viability, T/C (second compound 0.316 µM, first compound 0.949 µM): 0.08% | viability, T/C (second compound 0.316 µM, first compound 3 µM): 1.52% | viability, T/C [13]: 0.1% | viability, T/C [14]: 0.12% | viability, T/C [15]: 0.12% | viability, T/C [16]: 0.07% | viability, T/C (second compound 1 µM, first compound 0.949 µM): 0.06% | viability, T/C (second compound 1 µM, first compound 3 µM): 0.63% | viability, T/C [17]: 0.07% | viability, T/C [18]: 0.1% | viability, T/C [19]: 0.12% | viability, T/C [20]: 0.12% | viability, T/C (second compound 3.16 µM, first compound 0.949 µM): 0.79% | viability, T/C (second compound 3.16 µM, first compound 3 µM): 0.75% | viability, T/C [21]: 0.05% | viability, T/C [22]: 0.08% | viability, T/C [23]: 0.17% | viability, T/C [24]: 0.2% | viability, T/C (second compound 10 µM, first compound 0.949 µM): 1.48% | viability, T/C (second compound 10 µM, first compound 3 µM): 0.19%

Nc1ccccc1NC(=O)c1ccc(CNC(=O)OCc2cccnc2)cc1 + CN1CCN(c2cc(C(=O)Nc3cc4cc(-c5cnn(C)c5)ccc4cn3)ccn2)CC1
IC50 (second compound 0.0316 µM): 1870 nM | IC50 (second compound 0.1 µM): 1840 nM | IC50 (second compound 0.316 µM): < 31.6 nM | IC50 (second compound 1 µM): < 31.6 nM | IC50 (second compound 3.16 µM): < 31.6 nM | IC50 (second compound 10 µM): < 31.6 nM | viability, T/C [25]: 124% | viability, T/C [26]: 125% | viability, T/C [27]: 96.9% | viability, T/C [28]: 72.2% | viability, T/C [29]: 32.5% | viability, T/C [30]: 1.56% | viability, T/C [31]: 107% | viability, T/C [32]: 109% | viability, T/C [33]: 96.9% | viability, T/C [34]: 71.7% | viability, T/C [35]: 31% | viability, T/C [36]: 1.87% | viability, T/C [37]: 37.4% | viability, T/C [38]: 46.7% | viability, T/C [39]: 39.1% | viability, T/C [40]: 33.8% | viability, T/C [41]: 7.95% | viability, T/C [42]: 0.08% | viability, T/C [43]: 0.41% | viability, T/C [44]: 0.4% | viability, T/C [45]: 0.31% | viability, T/C [46]: 0.07% | viability, T/C [47]: 0.1% | viability, T/C [48]: 0.53% | viability, T/C [49]: 0.08% | viability, T/C [50]: 1.97% | viability, T/C [51]: 0.1% | viability, T/C [52]: 0.07% | viability, T/C [53]: 0.07% | viability, T/C [54]: 2.02% | viability, T/C [55]: 0.04% | viability, T/C [56]: 0.11% | viability, T/C [57]: 0.12% | viability, T/C [58]: 0.14% | viability, T/C [59]: 2.26% | viability, T/C [60]: 0.17%
